Experiments:
[1] = Bilayer photographic element: interimage (Cg/Cb+g) and relative green sensitivity
Procedure: Bilayer photographic elements were prepared by coating the following layers on a cellulose triacetate film support (coverages are in g/m^2). Unless otherwise noted, all comparative and inventive compounds were dispersed in twice their own weight of N,N-dibutyllauramide:
Layer 1 (Antihalation Layer): black colloidal elemental silver at 0.34 and gelatin at2.41.
Layer 2 (Receiver Layer): gelatin at 2.79, CDIR-2 at 0.03, coupler M-1 (dispersed as described previously) added at 0.045, comparison material (CIEM) or IEM added at 7.2×10^-3 mmol/m^2 (this corresponds to 1.67 mmol per mole silver as AgBr or 0.96 mmol per mole of silver) dispersed in twice its own weight of N,N-dibutyllauramide and 0.81 green sensitized AgIBr tabular emulsion.
Layer 3 (Interlayer): gelatin at 0.64, ILS-1 at 0.11 and FD-1 at 0.11.
Layer 4 (Causer Layer): gelatin at 2.79, coupler Y-1 at 0.91, 0.79 blue sensitized AgIBr tabular emulsion and the DIR at 0.11 mmol/m^2.
Layer 5 (Overcoat): gelatin at 2.79 and 0.02 bis-vinylsulfonemethylether.
Samples of each element were given a stepped exposure of either green light only or blue and green light combined and processed in the KODAK FLEXICOLOR (C-41) process as described in British Journal of Photography Annual, 1988, pp196-198. Contrast of the elements was determined using the maximum slope between any two density points. In this test, the ratio of the contrast of the green only exposure to the contrast of the green of a blue and green exposure (Cg /Cb+g) is a measure of the interimage. A higher ratio means more inhibition originating from the blue and affecting the green record.
Another set of bilayer experiments were generated in a similar manner to show the effect of IEM laydown (as mmol per mol silver) and DIR variations.

[2] = Multilayer film: interimage (density change in receiver record) and relative green or blue sensitivity; conditions: for Interimage B → G / Relative Green Sensitivity: IDIR-2 in blue layers
Text: Comparative examples are designated ML-C; inventive examples are designated ML-I.
Experimental Sample ML-C-0:
Layer 1 (Antihalation layer): black colloidal silver sol at 0.140; gelatin at 2.15; OxDS-1 at 0.108, DYE-1 at 0.049; DYE-2 at 0.017 and DYE-3 at 0.014.
Layer 2 (Slow cyan layer): a blend of three red sensitized (all with a mixture of RSD-1 and RSD-2) silver iodobromide emulsions: (i) a large sized tabular grain emulsion (1.3×0.118, 4.1 mole % I) at 0.522 (ii) a smaller tabular emulsion (0.85×0.115, 4.1 mole % I) at 0.337 and (iii) a very small tabular grain emulsion (0.55×0.115, 1.5 mole % I) at 0.559; gelatin at 2.85; cyan dye-forming coupler C-1 at 0.452; CDIR-1 at 0.043; bleach accelerator releasing coupler B-1 at 0.054 and anti-foggant 4-hydroxy-6-methyl-1,3,3a,7-tetraazaindene at 0.016.
Layer 3 (Fast cyan layer): a red-sensitized (same as above) tabular silver iodobromide emulsion (2.2×0.128, 4.1 mole % I) at 0.086; cyan coupler C-1 at 0.081; CDIR-1 at 0.034; MC-1 at 0.043; gelatin at 1.72 and anti-foggant 4-hydroxy-6-methyl-1,3,3a,7-tetraazaindene at 0.010.
Layer 4 (Interlayer): gelatin at 1.29.
Layer 5 (Slow magenta layer): a blend of two green sensitized (both with a mixture of GSD-1 and GSD-2) silver iodobromide emulsions: (i) 0.54×0.091, 4.1 mole % iodide at 0.194 and (ii) 0.52×0.085, 1.5 mole % iodide at 0.559; magenta dye forming coupler M-1 at 0.24, gelatin at 1.08 and anti-foggant 4-hydroxy-6-methyl-1,3,3a,7-tetraazaindene at 0.005.
Layer 6 (Mid magenta layer): a blend of two green sensitized (same as above) tabular silver iodobromide emulsions (i) 1.3×0.113, 4.1 mole % I at 0.430 and (ii) […], 4.1 mole % I at 0.172; magenta dye forming coupler M-1 at 0.065; MC-2 at 0.015; IDIR-5 at 0.016; gelatin at 2.12 and anti-foggant 4-hydroxy-6-methyl-1,3,3a,7-tetraazaindene at 0.003.
Layer 7 (Fast magenta layer): a green sensitized tabular silver iodobromide (1.8×0.127, 4.1 mole % I) emulsion at 0.689; gelatin at 1.61; magenta dye forming coupler M-1 at 0.043; MC-2 at 0.054 and CDIR-2 at 0.003.
Layer 8 (Yellow filter layer): gelatin at 0.86; Carey-Lea silver at 0.043 and OxDS-2 at 0.054.
Layer 9 (Slow yellow layer): an equal blend of three blue sensitized (all with YSD-1) silver iodobromide emulsions (i) 0.50×0.085, 1.5 mole % I (ii) 0.60 diameter 3-D, 3% mole I and (iii) 0.68 diameter 3-D, 3 mole % I at a total of 0.430; yellow dye forming coupler Y-2 at 0.699; yellow dye forming coupler Y-3 at 0.215; IDIR-2 at 0.086; C-1 at 0.097 and gelatin at 2.066.
Layer 10 (Fast yellow layer): two blue sensitized (with YSD-1) silver iodobromide emulsions (i) 3.1×0.137 tabular, 4.1 mole % I at 0.396 (ii) 0.95 diameter 3-D, 7.1 mole % I at 0.47; Y-2 at 0.131; Y-3 at 0.215; IDIR-2 at 0.075; C-1 at 0.011; B-1 at 0.008 and gelatin at 1.08.
Layer 11 (Protective overcoat and UV filter layer): gelatin at 1.61; silver bromide Lippman emulsion at 0.215; UV-1 and UV-2 (1:1 ratio) at a total of 0.023 and bis(vinylsulfonyl)methane hardener at 1.6% of total gelatin weight.
Surfactants, coating aids, emulsion addenda. sesquestrants, lubricants, matte and tinting dyes were added to the appropriate layers as is common in the art. The following describes the composition of each particular experimental coating based on ML-C-0:
ML-C-1: Like ML-C-0, but IDIR-6 replaces IDIR-2 in layers 9 and 10 at equimolar levels.
ML-C-2: Like ML-C-0, but IDIR-1 replaces IDIR-5 in layer 6 at 0.032.
ML-I-0: Like ML-C-0, but IEM-A added at 3×10^-4 in layer 5, 2×10^-4 in layer 6 and 2.9×10^-4 in layer 7.
ML-I-1: Like ML-C-0, but IEM-A added at 3×10^-3 in layer 5, 2×10^-3 in layer 6 and 2.9×10^-3 in layer 7.
ML-I-2: Like ML-C-0, but IEM-A added at 3×10^-2 in layer 5, 2×10^-2 in layer 6 and 2.9×10^-2 in layer 7.
ML-I-3: Like ML-C-0, but IEM-A added at 1.6×10^-3 in layers 9 and 10.
ML-I-4: Like ML-C-1, but IEM-A added at 1.6×10^-3 in layers 9 and 10.
ML-I-5: Like ML-C-2, but IEM-A added at 1.6×10^-3 in layers 9 and 10. […]

[3] = Table III BL-23: laydown 0.96 mmol per mol silver, IDIR-2 in blue
[4] = Table III BL-24: laydown 9.6 mmol per mol silver, IDIR-2 in blue
[5] = Table III BL-26: laydown 0.96 mmol per mol silver, IDIR-6 in blue
[6] = Table III BL-27: laydown 9.6 mmol per mol silver, IDIR-6 in blue
[7] = Table IV ML-I-0: 0.14 mmol IEM-A/mol silver in layers 5, 6, 7
[8] = Table IV ML-I-1: 1.4 mmol IEM-A/mol silver in layers 5, 6, 7
[9] = Table IV ML-I-2: 14 mmol IEM-A/mol silver in layers 5, 6, 7
[10] = Table V ML-I-3: IEM in blue layer, IDIR-2 in blue, IDIR-5 in green
[11] = Table V ML-I-4: IEM in blue layer, IDIR-6 in blue, IDIR-5 in green
[12] = Table V ML-I-5: IEM in blue layer, IDIR-2 in blue, IDIR-1 in green
[13] = Table V ML-I-6: IEM in blue layer, IDIR-6 in blue, IDIR-1 in green

## CCC(C)(C)c1ccc(OCCCCNC(=O)c2ccc3[nH]nnc3c2)c(C(C)(C)CC)c1 [IEM-A]
[1]; Table II, IDIR-2 in blue layer, IEM or CIEM at 7.2×10^-3 mmol/m^2
  Cg /Cb+g (interimage ratio): 1.65
[1]; [3]
  Cg /Cb+g (interimage ratio): 1.95
  Relative Green Sensitivity: 0.95
[1]; [4]
  Cg /Cb+g (interimage ratio): 1.62
  Relative Green Sensitivity: 0.82
[1]; [5]
  Cg /Cb+g (interimage ratio): 1.33
  Relative Green Sensitivity: 0.96
[1]; [6]
  Cg /Cb+g (interimage ratio): 1.59
  Relative Green Sensitivity: 0.89
[2]; [7]
  Interimage B → G: -0.041
  Relative Green Sensitivity: 0.99
[2]; [8]
  Interimage B → G: -0.100
  Relative Green Sensitivity: 0.96
[2]; [9]
  Interimage B → G: -0.097
  Relative Green Sensitivity: 0.82
[2]; [10]
  Interimage G → B: -0.154
  Relative Blue Sensitivity: 0.98
[2]; [11]
  Interimage G → B: -0.155
  Relative Blue Sensitivity: 0.97
[2]; [12]
  Interimage G → B: -0.202
  Relative Blue Sensitivity: 0.98
[2]; [13]
  Interimage G → B: -0.243
  Relative Blue Sensitivity: 0.96
